# Experimental data reported in ChEMBL document CHEMBL5653615 (J Biol Chem, 2013).
# Key:
# [1] = target: Protein kinase C delta type (Homo sapiens) (UniProt Q05655); experiment: Inhibition of human PKCd at 18.6 nM by HotSpot assay relative to control
# [2] = target: T1, Serine/threonine-protein kinase A-Raf (Homo sapiens) (UniProt P10398); experiment: Inhibition of human ARAF at 1.82 nM by HotSpot assay relative to control
# T1 sequence (whole entry): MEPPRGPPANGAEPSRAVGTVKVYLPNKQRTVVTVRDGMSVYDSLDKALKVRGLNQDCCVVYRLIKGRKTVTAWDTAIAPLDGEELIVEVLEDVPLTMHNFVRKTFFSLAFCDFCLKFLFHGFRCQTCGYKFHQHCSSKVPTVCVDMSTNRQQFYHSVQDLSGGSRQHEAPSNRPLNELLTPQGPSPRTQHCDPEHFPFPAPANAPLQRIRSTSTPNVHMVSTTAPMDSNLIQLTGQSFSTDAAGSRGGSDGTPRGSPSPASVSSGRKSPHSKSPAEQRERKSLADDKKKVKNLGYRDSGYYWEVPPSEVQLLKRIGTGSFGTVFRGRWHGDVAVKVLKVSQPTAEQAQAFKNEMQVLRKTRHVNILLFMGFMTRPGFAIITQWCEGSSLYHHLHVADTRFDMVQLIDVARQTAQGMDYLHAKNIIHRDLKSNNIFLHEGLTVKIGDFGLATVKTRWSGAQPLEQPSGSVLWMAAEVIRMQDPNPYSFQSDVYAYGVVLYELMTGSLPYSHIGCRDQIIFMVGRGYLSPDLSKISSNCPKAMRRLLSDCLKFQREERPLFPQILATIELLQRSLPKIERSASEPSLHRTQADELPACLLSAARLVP
# [3] = target: Calcium/calmodulin-dependent protein kinase type II subunit alpha (Homo sapiens) (UniProt Q9UQM7); experiment: Inhibition of human CAMK2a at 1.82 nM by HotSpot assay relative to control
# [4] = target: Vascular endothelial growth factor receptor 2 (Homo sapiens) (UniProt P35968); experiment: Inhibition of human KDR at 1.82 nM by HotSpot assay relative to control
# [5] = target: T2, Serine/threonine-protein kinase Nek1 (Homo sapiens) (UniProt Q96PY6); experiment: Inhibition of human NEK1 at 500 nM by HotSpot assay relative to control
# T2 sequence (whole entry): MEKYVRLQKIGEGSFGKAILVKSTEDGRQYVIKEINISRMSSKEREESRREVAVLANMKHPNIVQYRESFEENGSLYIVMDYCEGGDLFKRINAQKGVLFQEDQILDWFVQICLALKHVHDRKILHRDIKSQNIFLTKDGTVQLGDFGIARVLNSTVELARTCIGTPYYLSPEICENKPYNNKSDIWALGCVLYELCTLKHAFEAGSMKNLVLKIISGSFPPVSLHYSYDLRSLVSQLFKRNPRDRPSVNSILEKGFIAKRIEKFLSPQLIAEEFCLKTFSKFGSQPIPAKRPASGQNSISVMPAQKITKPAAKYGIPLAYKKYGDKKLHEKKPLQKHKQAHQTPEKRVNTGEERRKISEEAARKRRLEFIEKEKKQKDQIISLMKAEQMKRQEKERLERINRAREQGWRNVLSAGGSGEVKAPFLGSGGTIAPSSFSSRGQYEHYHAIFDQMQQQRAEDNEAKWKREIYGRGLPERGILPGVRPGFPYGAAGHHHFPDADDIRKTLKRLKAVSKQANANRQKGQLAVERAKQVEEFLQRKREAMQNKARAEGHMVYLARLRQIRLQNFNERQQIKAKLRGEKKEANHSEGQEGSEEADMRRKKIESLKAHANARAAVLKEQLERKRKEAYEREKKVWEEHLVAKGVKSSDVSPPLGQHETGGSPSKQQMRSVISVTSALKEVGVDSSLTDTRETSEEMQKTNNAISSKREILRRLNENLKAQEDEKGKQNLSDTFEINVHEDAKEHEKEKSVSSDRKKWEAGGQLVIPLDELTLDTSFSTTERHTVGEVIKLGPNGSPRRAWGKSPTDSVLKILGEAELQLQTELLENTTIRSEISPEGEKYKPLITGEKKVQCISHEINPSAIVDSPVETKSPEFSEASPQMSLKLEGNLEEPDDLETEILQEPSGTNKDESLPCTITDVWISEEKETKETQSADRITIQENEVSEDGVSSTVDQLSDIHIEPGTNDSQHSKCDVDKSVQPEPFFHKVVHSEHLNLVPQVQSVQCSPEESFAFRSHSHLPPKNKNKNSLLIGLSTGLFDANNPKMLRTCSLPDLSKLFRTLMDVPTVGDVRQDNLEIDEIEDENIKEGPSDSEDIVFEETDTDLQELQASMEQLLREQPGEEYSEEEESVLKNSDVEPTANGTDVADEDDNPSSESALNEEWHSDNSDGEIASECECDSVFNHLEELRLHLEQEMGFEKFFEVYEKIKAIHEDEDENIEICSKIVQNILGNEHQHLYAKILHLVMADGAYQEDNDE
# Sequence of Vascular endothelial growth factor receptor 2 (Homo sapiens) (P35968 whole entry): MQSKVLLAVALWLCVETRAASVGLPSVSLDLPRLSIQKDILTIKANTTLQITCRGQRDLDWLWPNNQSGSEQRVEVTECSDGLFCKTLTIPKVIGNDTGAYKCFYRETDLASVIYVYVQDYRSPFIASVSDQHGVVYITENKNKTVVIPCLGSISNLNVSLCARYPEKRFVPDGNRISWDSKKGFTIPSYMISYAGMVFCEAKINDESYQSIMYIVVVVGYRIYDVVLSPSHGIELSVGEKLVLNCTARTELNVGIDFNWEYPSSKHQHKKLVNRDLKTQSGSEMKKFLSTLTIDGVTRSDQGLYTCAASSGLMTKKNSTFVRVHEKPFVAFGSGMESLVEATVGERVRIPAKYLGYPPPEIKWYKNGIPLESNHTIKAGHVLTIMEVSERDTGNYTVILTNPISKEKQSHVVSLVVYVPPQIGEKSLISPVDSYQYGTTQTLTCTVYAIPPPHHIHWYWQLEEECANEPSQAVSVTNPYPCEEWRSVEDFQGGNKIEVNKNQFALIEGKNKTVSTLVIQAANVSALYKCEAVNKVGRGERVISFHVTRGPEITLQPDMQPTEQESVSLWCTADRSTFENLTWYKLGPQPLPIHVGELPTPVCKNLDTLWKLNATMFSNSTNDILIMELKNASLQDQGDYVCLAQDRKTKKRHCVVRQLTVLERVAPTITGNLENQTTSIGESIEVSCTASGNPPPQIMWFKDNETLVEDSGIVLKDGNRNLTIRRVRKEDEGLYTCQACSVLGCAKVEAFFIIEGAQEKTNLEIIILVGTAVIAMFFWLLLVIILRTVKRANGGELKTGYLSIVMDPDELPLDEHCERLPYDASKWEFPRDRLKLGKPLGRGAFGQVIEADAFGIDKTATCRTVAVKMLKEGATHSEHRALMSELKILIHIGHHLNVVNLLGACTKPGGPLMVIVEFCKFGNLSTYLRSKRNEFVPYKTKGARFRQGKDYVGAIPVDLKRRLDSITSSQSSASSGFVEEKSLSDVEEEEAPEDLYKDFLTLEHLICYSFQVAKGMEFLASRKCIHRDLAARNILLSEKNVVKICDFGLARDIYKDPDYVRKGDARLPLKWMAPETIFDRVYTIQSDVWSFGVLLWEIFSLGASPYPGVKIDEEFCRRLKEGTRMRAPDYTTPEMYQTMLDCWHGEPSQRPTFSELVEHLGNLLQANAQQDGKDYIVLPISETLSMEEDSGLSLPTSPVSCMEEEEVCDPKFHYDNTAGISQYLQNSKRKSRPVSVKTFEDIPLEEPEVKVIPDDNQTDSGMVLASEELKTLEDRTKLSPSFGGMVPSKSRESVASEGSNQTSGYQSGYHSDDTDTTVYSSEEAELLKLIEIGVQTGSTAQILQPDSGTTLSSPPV
# Sequence of Calcium/calmodulin-dependent protein kinase type II subunit alpha (Homo sapiens) (Q9UQM7 whole entry): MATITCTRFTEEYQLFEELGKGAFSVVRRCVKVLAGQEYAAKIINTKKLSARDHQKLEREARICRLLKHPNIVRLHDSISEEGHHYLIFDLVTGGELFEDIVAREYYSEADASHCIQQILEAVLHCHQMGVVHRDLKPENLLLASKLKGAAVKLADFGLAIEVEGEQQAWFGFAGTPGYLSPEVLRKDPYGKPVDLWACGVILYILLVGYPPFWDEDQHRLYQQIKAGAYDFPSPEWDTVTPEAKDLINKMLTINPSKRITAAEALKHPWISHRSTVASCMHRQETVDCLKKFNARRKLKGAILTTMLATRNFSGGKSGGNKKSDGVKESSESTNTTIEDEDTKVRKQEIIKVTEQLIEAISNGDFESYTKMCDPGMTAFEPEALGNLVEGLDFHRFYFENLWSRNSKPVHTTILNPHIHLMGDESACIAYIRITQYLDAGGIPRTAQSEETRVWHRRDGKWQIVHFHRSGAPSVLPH
# Sequence of Protein kinase C delta type (Homo sapiens) (Q05655 whole entry, looked up): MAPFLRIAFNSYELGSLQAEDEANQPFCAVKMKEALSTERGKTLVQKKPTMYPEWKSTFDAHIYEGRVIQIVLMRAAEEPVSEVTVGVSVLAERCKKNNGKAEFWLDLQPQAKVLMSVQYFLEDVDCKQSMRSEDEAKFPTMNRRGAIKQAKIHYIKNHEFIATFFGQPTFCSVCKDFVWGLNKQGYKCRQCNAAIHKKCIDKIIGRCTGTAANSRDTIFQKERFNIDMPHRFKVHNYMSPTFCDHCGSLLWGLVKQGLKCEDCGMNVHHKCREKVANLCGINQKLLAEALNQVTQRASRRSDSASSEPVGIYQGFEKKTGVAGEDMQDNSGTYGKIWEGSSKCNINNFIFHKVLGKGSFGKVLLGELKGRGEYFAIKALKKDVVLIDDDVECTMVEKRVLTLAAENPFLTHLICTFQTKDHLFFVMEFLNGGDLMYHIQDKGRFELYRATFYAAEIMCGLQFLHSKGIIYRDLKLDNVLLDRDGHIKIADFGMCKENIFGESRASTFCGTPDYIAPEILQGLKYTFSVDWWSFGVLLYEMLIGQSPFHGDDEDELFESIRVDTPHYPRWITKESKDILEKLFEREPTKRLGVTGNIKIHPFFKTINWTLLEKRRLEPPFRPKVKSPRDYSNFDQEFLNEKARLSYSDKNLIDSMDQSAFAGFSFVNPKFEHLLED
structure (smiles),measurement,setting,value
C[C@]1(O)C[C@@H](c2nc(-c3ccc4ccc(-c5ccccc5)nc4c3)c3c(N)nccn32)C1,inhibition,[1],-2%
C[C@@]1(C(=O)Nc2ccc(F)nc2)CCCN1c1nc(Nc2cc(C3CC3)n[nH]2)c2cccn2n1,inhibition,[2],5.85%
same,inhibition,[3],-2.76%
same,inhibition,[4],3.67%
Nc1n[nH]c2nnc(-c3c(-c4ccccc4)nn4ccccc34)cc12,inhibition,[5],-9.24%
